For ten compounds, EC50 results are on record in patent US12409171B2, “Pharmaceutically active pyrazolo-pyridone modulators of DCN1/2-mediated cullin neddylation” (UNIVERSITY OF KENTUCKY RESEARCH FOUNDATION, priority 2019, dated 2025).

DCN1, sequence (Q96GG9 whole entry): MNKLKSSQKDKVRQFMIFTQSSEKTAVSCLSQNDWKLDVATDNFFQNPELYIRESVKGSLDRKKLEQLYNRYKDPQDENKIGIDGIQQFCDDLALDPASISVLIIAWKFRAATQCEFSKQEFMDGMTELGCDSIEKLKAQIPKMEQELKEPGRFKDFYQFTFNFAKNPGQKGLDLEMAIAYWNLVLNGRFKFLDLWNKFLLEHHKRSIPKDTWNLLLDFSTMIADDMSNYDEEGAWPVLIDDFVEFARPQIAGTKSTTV

This test has as its target DCN1 (Homo sapiens (Human), UniProt Q96GG9). The experiment in a line: TR-FRET binding assay (biotin-DCN1 / Ac-UBE2M12-AlexaFluor488). Conditions: mean ± SD (n); read-out: DCN1_TRFRET Mean EC50. As for the experimental part:
• IC50 values were generated using our TR-FRET binding assay and are represented as the mean of three replicates with errors reported as the standard deviation.
The assay cocktail was then incubated for 1 h at room temperature and distributed using a WellMate instrument (Matrix). Compounds to be screened were added to assay plates from DMSO stock solutions by pin transfer using 50SS pins (V&P Scientific). […] All compounds were tested in triplicate or more.
`CCN1C(=O)[C@@H](NC(=O)c2cccc(C(F)(F)F)c2)[C@@H](c2ccc(F)cc2)c2c(CNC)nn(-c3ccccc3)c21` [RG-0014056, N-[(4S,5S)-7-ethyl-4-(4-fluorophenyl)-3-[(methylamino)methyl]-6-oxo-1-phenyl-1H,4H,5H,6H,7H-pyrazolo[3,4-b]pyridin-5-yl]-3-(trifluoromethyl)benzamide]: the EC50 was 118 ± 9.03 nM.
Take `CCN1C(=O)[C@@H](NC(=O)c2cccc(C(F)(F)F)c2)[C@@H](c2ccc(C)s2)c2c(C)nn(-c3ccccc3)c21` [RG-0014004, N-[(4S,5S)-7-ethyl-3-methyl-4-(5-methylthiophen-2-yl)-6-oxo-1-phenyl-1H,4H,5H,6H,7H-pyrazolo[3,4-b]pyridin-5-yl]-3-(trifluoromethyl)benzamide]: the EC50 stood at 1410 ± 15.9 nM.
To `CCN1C(=O)[C@@H](NC(=O)c2cccc(C(F)(F)F)c2)[C@@H](c2ccc(F)c(OC)c2)c2c(C)nn(-c3ccccc3)c21` [RG-0013996, N-[(4S,5S)-7-ethyl-4-(4-fluoro-3-methoxyphenyl)-3-methyl-6-oxo-1-phenyl-1H,4H,5H,6H,7H-pyrazolo[3,4-b]pyridin-5-yl]-3-(trifluoromethyl)benzamide] belongs 1270 ± 47 nM.
Take `CCN1C(=O)[C@@H](NC(=O)c2cccc(C(F)(F)F)c2)[C@@H](c2ccc(F)cc2)c2c(CNCCNC(=O)OC(C)(C)C)nn(-c3ccccc3)c21` [RG-0014142, tert-butyl N-[2-({[(4S,5S)-7-ethyl-4-(4-fluorophenyl)-6-oxo-1-phenyl-5-[3-(trifluoromethyl)benzamido]-1H,4H,5H,6H,7H-pyrazolo[3,4-b]pyridin-3-yl]methyl}amino)ethyl]carbamate]: the EC50 was determined as 116 ± 17.5 nM.
To `CCN1C(=O)[C@@H](NC(=O)c2cccc(C(F)(F)F)c2)[C@@H](c2ccc(F)cc2)c2c(CNCCN)nn(-c3ccccc3)c21` [RG-0014149, N-[(4S,5S)-3-{[(2-aminoethyl)amino]methyl}-7-ethyl-4-(4-fluorophenyl)-6-oxo-1-phenyl-1H,4H,5H,6H,7H-pyrazolo[3,4-b]pyridin-5-yl]-3-(trifluoromethyl)benzamide] belongs 126 ± 12.1 nM; to `CC/C=C/C(=O)N[C@@H]1C(=O)N(CC)c2c(c(C)nn2-c2ccccc2)[C@@H]1c1ccc(F)cc1` [RG-0014157, (2E)-N-[(4S,5S)-7-ethyl-4-(4-fluorophenyl)-3-methyl-6-oxo-1-phenyl-1H,4H,5H,6H,7H-pyrazolo[3,4-b]pyridin-5-yl]pent-2-enamide], > 30700 nM; to `Cc1nn(-c2ccccc2)c2c1[C@H](c1ccc(F)cc1)[C@H](NC(=O)c1cccc(C(F)(F)F)c1)C(=O)N2C1CCC1` [RG-0013050, N-[(4S,5S)-7-cyclobutyl-4-(4-fluorophenyl)-3-methyl-6-oxo-1-phenyl-1H,4H,5H,6H,7H-pyrazolo[3,4-b]pyridin-5-yl]-3-(trifluoromethyl)benzamide], 2580 ± 247 nM.
Regarding `CCN1C(=O)[C@@H](NC(=O)c2cccc(C)c2)[C@@H](c2ccc(F)cc2)c2c(C)nn(C(C)C)c21` [RG-0008860, N-[(4S,5S)-7-ethyl-4-(4-fluorophenyl)-3-methyl-6-oxo-1-(propan-2-yl)-1H,4H,5H,6H,7H-pyrazolo[3,4-b]pyridin-5-yl]-3-methylbenzamide], the EC50 is 467 ± 28 nM.
As for `CCN1C(=O)[C@@H](N)[C@@H](c2ccc(F)cc2)c2c(C)nn(-c3ccccc3)c21` [RG-0013837, (4S,5S)-5-amino-7-ethyl-4-(4-fluorophenyl)-3-methyl-1-phenyl-1H,4H,5H,6H,7H-pyrazolo[3,4-b]pyridin-6-one], the EC50 is > 36500 nM.
To `CCN1C(=O)[C@@H](NC(=O)c2cc(C)cc(F)c2)[C@@H](c2ccc(F)cc2)c2c(C)nn(-c3ccccc3)c21` [RG-0013053, N-[(4S,5S)-7-ethyl-4-(4-fluorophenyl)-3-methyl-6-oxo-1-phenyl-1H,4H,5H,6H,7H-pyrazolo[3,4-b]pyridin-5-yl]-3-fluoro-5-methylbenzamide] belongs 2330 ± 105 nM.

What is called EC50 is the midpoint of the concentration-response curve.
